The results in this text go back to US20230149540A1, “VACCINE PLATFORM FOR THE INDUCTION OF SYSTEMIC IMMUNE RESPONSES” (The Board of Trustees of the Leland Stanford Junior …, priority 2020, published 2023).

One experiment has as its system human MAIT cells. As to the kind of experiment: In vitro MAIT cell activation, IFN-γ secretion (FIG. 7). Format: cell-based. Particulars: stimulated for 18 h. As to the method:
(§1) FIG. 7. In vitro exposure of human or rhesus macaque MAIT cells to their cognate antigen (5-OP-RU) (a highly unstable molecule) or microspheres loaded with 5-OP-RU-loaded MR-1 monomer induced IFN-γ secretion. Representative pseudocolor plots shown are gated on live CD8^+ T cells. Human and rhesus macaque cells were stimulated for 18 h.
(§2) Activation of innate-like T cells and effector memory T cells can be achieved by presentation of their antigen in the context of the appropriate MHC molecule. Streptavidin-coated microspheres were linked to biotinylated monomers of CD1d (type I NKT cells) or MR1 (MAIT cells) to test for induction of activation of these innate-like T cells. […] We then performed an experiment in which mice were intravenously administrated CABs loaded with αGC (positive control), which would induce the expansion of NKT cells, CD1d-αGC-coated microspheres (test group), or were left untreated (negative control) (FIG. 8).

Experiment [1] has as its system rhesus macaque MAIT cells. The experiment is described as above. Format: cell-based. Particulars: stimulated for 18 h. As to the method: as §1, §2

Turning to `CC(=O)C=Nc1c(NC[C@H](O)[C@H](O)[C@H](O)CO)[nH]c(=O)[nH]c1=O` [5-OP-RU], the “secretion of IFN-γ by MAIT cells” value (in the experiment on human MAIT cells; in experiment [1]) was “induce secretion of IFN-γ to a similar extent” in each case.
